Results on three molecules are retold here after publication PMC12250347, “Calcium-dependent pathway as a primary cause of hypoxic RGC damage in monkey retinal explants” (PLOS One, 2025).

One assay has as its target T1, human liver cathepsin L (Homo sapiens, UniProt P07711).
T1 construct: human liver cathepsin L (MilliporeSigma); purchased MilliporeSigma; host or cells: human liver
Kind of assay: In vitro cathepsin inhibitory assay (Z-Phe-Arg-AMC fluorescence). Format: biochemical. The following applies: 50 ng/mL cathepsin L, 20 µM Z-Phe-Arg-AMC, 15 min, 37°C, pH 5.5; mean of two experiments. The procedure:
(§1) Cathepsins K, B, and L were selected because of their known roles in cell death and early release following lysosomal membrane permeabilization. The inhibitory activities of cathepsin inhibitors were assessed in vitro using human recombinant cathepsin K (MilliporeSigma), human liver cathepsin B (MilliporeSigma), and human liver cathepsin L (MilliporeSigma). Cathepsins and the cathepsin substrate, Z-Phe-Arg-AMC (PEPTIDE INSTITUTE, INC.), were dissolved in 50 mM sodium acetate buffer (pH 5.5) containing 2 mM dithiothreitol and 2 mM EDTA. A cathepsin K inhibitor, Odanacatib (Selleck Chemicals, Houston, TX, USA), and a cathepsin L inhibitor, SID26681509 (Bio-Techne Corporation), were dissolved in dimethyl sulfoxide (DMSO) (Nacalai Tesque, Kyoto, Japan) before use in the assay. The final concentration of DMSO in the reaction solution was 2%. The cathepsin substrate, 20 µM Z-Phe-Arg-AMC, was incubated for 15 min with 20 ng/mL cathepsin K, 15 ng/mL cathepsin B, or 50 ng/mL cathepsin L, with or without each inhibitor at a final concentration of 0.001 nM to 100 µM in 100 µL of mixed reaction solution in a 96-well plate at 37 °C. The fluorescence was measured using a microplate reader (GloMax Discover System; Promega). IC50 values from two independent experiments were averaged.

The next assay concerns the target T2, human liver cathepsin B (Homo sapiens, UniProt P07858).
T2 construct: human liver cathepsin B (MilliporeSigma); purchased MilliporeSigma; host or cells: human liver
The assay is described as above. Format: biochemical. Conditions: 15 ng/mL cathepsin B, 20 µM Z-Phe-Arg-AMC, 15 min, 37°C, pH 5.5; mean of two experiments. On the procedure: as §1

The target of assay [1] is T3, human recombinant cathepsin K (Homo sapiens, UniProt P43235).
T3 construct: purchased MilliporeSigma
T3 sequence (P43235 115-329): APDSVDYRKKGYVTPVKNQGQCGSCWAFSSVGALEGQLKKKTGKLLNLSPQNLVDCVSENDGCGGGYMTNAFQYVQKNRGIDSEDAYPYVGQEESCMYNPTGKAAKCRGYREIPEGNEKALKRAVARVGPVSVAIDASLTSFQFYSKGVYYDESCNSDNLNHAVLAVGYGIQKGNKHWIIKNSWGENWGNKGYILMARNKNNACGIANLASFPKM
Described as above. Format: biochemical. Conditions: 20 ng/mL cathepsin K, 20 µM Z-Phe-Arg-AMC, 15 min, 37°C, pH 5.5; mean of two experiments. The procedure:
as §1

The test system of assay [2] is calpain-specific SBDP150 in nerve fiber layer (NFL). Kind of assay: SBDP150 immunostaining of flat-mounted retinal explants under hypoxia/reoxygenation. It counts as cell-based, rhesus macaques (Macaca mulatta). The following applies: H16R8; for Effect on calpain-specific SBDP150-positive staining in NFL: cathepsin inhibitor at 10 or 100 µM. The procedure:
Retina explant culture was performed as described in our previous report, except for the induction of hypoxia. Briefly, a hypoxic chamber (Coy Laboratory Products, Grass Lake, MI, USA) was controlled at 0.3% oxygen with a 95% N2/5% CO2 gas mixture. Retinas were dissected into fan-shaped explants with 6 or 7 petals (> 5 mm) in HBSS. Each explant was placed with the RGC side facing up on a Millicell organotypic standing insert (0.4 μm, 30 mm diameter, MilliporeSigma) in six-well, culture plates. They were cultured for 2 hr at 37°C under 95% N2/5% CO2 in Neurobasal-A medium supplemented with B27, N2 supplements, 2 mM L-glutamine (Thermo Fisher Scientific, Waltham, MA, USA), and 100 μg/mL primocin (Invivogen, San Diego, CA, USA). Retinal explants were then chamber-cultured under hypoxic conditions for 16 hr in a culture medium with 0.5 mM glucose, under 0.3% oxygen. The retinas were then re-oxygenated for 8 hr in a culture medium with 5.5 mM glucose. Normoxic control retinas were cultured for 24 hr in a culture medium with 5.5 mM glucose. When present, calpain inhibitors (SNJ-1945, PD-151746, C2I, and ABT-957) and cathepsin inhibitors (Odanacatib and SID26681509) in 0.1% DMSO were used at the final concentration of 10 or 100 μM in the medium. BAPTA (Thermo Fisher Scientific) and BAPTA-AM (Thermo Fisher Scientific) were also used at a final concentration of 3 or 10 mM or a final concentration of 100 or 500 μM, respectively.
All inhibitors and BAPTA were treated simultaneously with hypoxia induction, and BAPTA-AM treatment was 2 hr before hypoxia induction.
Formalin-fixed retinal explants were incubated overnight at −30°C in 1: 4 dilutions of DMSO-ethanol to promote antibody penetration. The explants underwent two cycles of freezing and thawing between −80°C and room temperature in 100% ethanol for 20 min. The retinas were then rehydrated in 70%, 50%, and 15% ethanol and PBS for 20 min each, followed by overnight incubation with 0.2% Triton X-100. The samples were stained with antibodies specific for calpain-specific SBDP150 [8] (1:100 dilution, Senju Pharmaceutical) and β-III tubulin (a neuron marker, 1:500 dilution, Merck). The nerve fiber layer (NFL) was observed approximately 5 mm from the tips of the fan-shaped retinal flat mounts. Confocal images were taken using a model LSM 880 spectral confocal system with a 20x 0.8 NA lens (Carl Zeiss, Oberkochen, Germany).

T1 sequence (P07711 114-333): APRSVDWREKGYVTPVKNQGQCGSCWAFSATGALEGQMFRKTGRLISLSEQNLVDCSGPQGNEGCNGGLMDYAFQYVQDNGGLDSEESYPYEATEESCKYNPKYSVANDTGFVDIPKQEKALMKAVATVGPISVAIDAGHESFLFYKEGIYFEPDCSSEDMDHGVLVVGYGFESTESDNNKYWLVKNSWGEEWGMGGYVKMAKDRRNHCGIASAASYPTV

As usually defined, the IC50 is the concentration that gives 50% inhibition. Take `CCc1ccccc1NC(=O)CSC(=O)NNC(=O)[C@H](Cc1c[nH]c2ccccc12)NC(=O)OC(C)(C)C` [SID26681509]: the IC50 at human liver cathepsin L came out at 60 nM; at human liver cathepsin B, 495 nM; in assay [1], 1520 nM. In assay [2], the “Effect on calpain-specific SBDP150-positive staining in NFL” value was “Neither Odanacatib nor SID26681509 mitigated the increase”.
Take `CC(C)(F)C[C@H](N[C@@H](c1ccc(-c2ccc(S(C)(=O)=O)cc2)cc1)C(F)(F)F)C(=O)NC1(C#N)CC1` [Odanacatib]: the values for the half-inhibitory concentration (IC50) (at human liver cathepsin L; on human liver cathepsin B; in assay [1]) were 5130 nM, 167 nM and 0.28 nM, respectively. In assay [2], the “Effect on calpain-specific SBDP150-positive staining in NFL” value is “Neither Odanacatib nor SID26681509 mitigated the increase”.
Consider `COCCOCCOC(=O)N[C@@H](CC(C)C)C(=O)N[C@@H](Cc1ccccc1)C(=O)C(=O)NC1CC1` [SNJ-1945], for which, in assay [2] (calpain inhibitor at 100 µM), the “Effect on calpain-specific SBDP150 staining in NFL (calpain activation)” value is recorded as “demonstrated efficacy in reducing calpain activation”.
